Data reported in patent US20250011311A1, “AMIDO HETEROAROMATIC COMPOUNDS” (AstraZeneca AB, priority 2022, published 2025).

Key:
human hepatocytes = experiment: Assay A: Metabolic Stability in Human Hepatocytes; type: in vitro ADME; conditions: cryopreserved human hepatocytes, 10^6 viable cells/mL, 1 μM compound, 37° C.
Procedure, shortened: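 Cryopreserved hepatocytes (10^6 viable cells/mL) at 37° C with 1 μM test compound, sampled 0.5–120 min and quenched in MeCN. Parent measured by LC-MS/MS; CLint (μL/min/10^6 cells) from the slope of ln(parent concentration) vs time.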

[1] = biological target: over expressed HSD17β9 in HEK293S cells (Homo sapiens (Human), UniProt Q92781); experiment: In Vitro 17bHSD9 Cell Assay; type: cell-based; conditions: HEK293S cells over expressing HSD17β9; retinol to retinal conversion, 18 h, LC-MS/MS; read-out: 17bHSD9 Cell assay IC50
Sequence of over expressed HSD17β9 in HEK293S cells (Q92781 whole entry): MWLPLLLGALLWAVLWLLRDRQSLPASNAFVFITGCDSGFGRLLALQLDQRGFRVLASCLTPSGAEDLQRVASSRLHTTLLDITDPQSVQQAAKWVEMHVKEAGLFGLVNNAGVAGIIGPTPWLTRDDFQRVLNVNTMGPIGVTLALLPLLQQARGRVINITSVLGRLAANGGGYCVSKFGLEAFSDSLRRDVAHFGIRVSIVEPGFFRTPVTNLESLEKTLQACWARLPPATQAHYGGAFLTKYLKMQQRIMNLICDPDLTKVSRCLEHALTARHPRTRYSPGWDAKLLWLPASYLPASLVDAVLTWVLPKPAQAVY
Procedure, shortened: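 HEK293S cells overexpressing HSD17β9 were plated at 10K cells/well in DMEM + 10% FBS and cultured 18 h. Retinol-to-retinal conversion in media was quantified by LC-MS/MS (MRM) as retinal/(retinal + retinol). IC50 was fitted after normalisation to DMSO and full inhibition by a reference inhibitor.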

[2] = biological target: recombinant 17bHSD4 (M1-N311) (Homo sapiens (Human), UniProt P51659); experiment: In Vitro 17bHSD4 Enzyme Assay; type: biochemical; conditions: 40 nM 17bHSD4, 0.125 mM NAD, 15 μM Estradiol, 1.5 h; NADH fluorescence; read-out: 17HSD17b4 Enzyme assay IC50
Sequence of recombinant 17bHSD4 (M1-N311) (P51659 1-311): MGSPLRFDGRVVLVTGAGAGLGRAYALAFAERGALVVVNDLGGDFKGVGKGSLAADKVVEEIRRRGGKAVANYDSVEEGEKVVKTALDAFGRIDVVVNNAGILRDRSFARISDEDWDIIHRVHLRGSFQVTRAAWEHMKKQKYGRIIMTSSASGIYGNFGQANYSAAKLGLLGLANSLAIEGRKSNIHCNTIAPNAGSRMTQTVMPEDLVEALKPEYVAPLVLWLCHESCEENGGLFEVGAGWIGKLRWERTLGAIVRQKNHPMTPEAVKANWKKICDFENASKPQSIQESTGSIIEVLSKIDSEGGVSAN

[3] = biological target: over expressed HSD17β13 in HEK293S cells (Homo sapiens (Human), UniProt Q7Z5P4); experiment: In Vitro 17bHSD13 Cell Assay; type: cell-based; conditions: HEK293S cells over expressing HSD17β13; estradiol to estrone conversion, 18 h, LC-MS/MS; read-out: 17bHSD1713 Cell assay IC50
Sequence of over expressed HSD17β13 in HEK293S cells (Q7Z5P4 20-300): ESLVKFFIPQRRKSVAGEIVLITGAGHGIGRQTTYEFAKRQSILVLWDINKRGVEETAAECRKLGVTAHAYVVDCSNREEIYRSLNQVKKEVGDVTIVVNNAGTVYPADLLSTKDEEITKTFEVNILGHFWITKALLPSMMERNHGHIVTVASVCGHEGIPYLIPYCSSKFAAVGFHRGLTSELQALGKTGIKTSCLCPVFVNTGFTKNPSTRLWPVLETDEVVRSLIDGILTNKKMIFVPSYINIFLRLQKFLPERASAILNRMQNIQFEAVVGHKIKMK
Procedure, shortened: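 HEK293S cells overexpressing HSD17β13 convert estradiol to estrone; product read by LC-MS/MS (APCI, positive MRM) as AUC ratio estrone/(estrone+estradiol). Effect normalised between DMSO and maximal inhibition by a known inhibitor control; IC50 from curve fit.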

| SMILES | IC50 [1] | IC50 [2] | IC50 [3] | Assay A: Human Heps Met Clint GMean CLint (μl/min/1E6) (human hepatocytes) |
| --- | --- | --- | --- | --- |
| C[C@@H]1CC[C@H](C)N1C(=O)c1noc(-c2cc(F)c(F)c(O)c2F)n1 [Example 38, ((2R,5S)-2,5-Dimethylpyrrolidin-1-yl)(5-(2,4,5-trifluoro-3-hydroxyphenyl)-1,2,4-oxadiazol-3-yl)methanone] | 8.7 µM | 24 µM | 0.27 µM | 2.1 μl/min/1E6 |
| O=C(c1noc(-c2cc(F)c(F)c(O)c2F)n1)N1CC[C@H](c2ccc(Cl)cc2)C1 [Example 95, (R)-(3-(4-Chlorophenyl)pyrrolidin-1-yl)(5-(2,4,5-trifluoro-3-hydroxyphenyl)-1,2,4-oxadiazol-3-yl)methanone] | 17 µM | 6.9 µM | 0.21 µM | 12.9 μl/min/1E6 |
| O=C(c1noc(-c2cc(F)c(F)c(O)c2F)n1)N1CC[C@H](Oc2ccccc2)C1 [Example 93, (S)-(3-Phenoxypyrrolidin-1-yl)(5-(2,4,5-trifluoro-3-hydroxyphenyl)-1,2,4-oxadiazol-3-yl)methanone] | 40.3 µM | 22.2 µM | 0.7 µM | 15.6 μl/min/1E6 |
| O=C(c1noc(-c2cc(F)c(F)c(O)c2F)n1)N1CCCC(OCc2ccccc2)C1 (stereo not drawn) [Example 94, (3-(Benzyloxy)piperidin-1-yl)(5-(2,4,5-trifluoro-3-hydroxyphenyl)-1,2,4-oxadiazol-3-yl)methanone] | > 50 µM | 23.6 µM | 1.42 µM | 17.3 μl/min/1E6 |
| N#Cc1ccc2c(c1)CN(C(=O)c1noc(-c3cc(F)c(F)c(O)c3F)c1C#N)CC2 [Example 29, 3-(7-Cyano-1,2,3,4-tetrahydroisoquinoline-2-carbonyl)-5-(2,4,5-trifluoro-3-hydroxyphenyl)isoxazole-4-carbonitrile] | 16.3 µM | 17.6 µM | 0.44 µM | 16.9 μl/min/1E6 |
| N#Cc1cccc2c1CCN(C(=O)c1noc(-c3c(F)c(O)c(F)c(F)c3I)n1)C2 [Example 109, 2-(5-(2,4,5-Trifluoro-3-hydroxy-6-iodophenyl)-1,2,4-oxadiazole-3-carbonyl)-1,2,3,4-tetrahydroisoquinoline-5-carbonitrile] | > 50 µM | 11.7 µM | 1.7 µM | 13.0 μl/min/1E6 |
| Cn1nnc(-c2cnc(N3CCN(C(=O)c4noc(-c5cc(F)c(F)c(O)c5F)n4)CC3)c(Cl)c2)n1 [Example 67, (4-(3-Chloro-5-(2-methyl-2H-tetrazol-5-yl)pyridin-2-yl)piperazin-1-yl)(5-(2,4,5-trifluoro-3-hydroxyphenyl)-1,2,4-oxadiazol-3-yl)methanone] | > 50 µM | 4 µM | 0.53 µM | 6.6 μl/min/1E6 |
| O=C(c1noc(-c2cc(F)c(F)c(O)c2F)n1)N1CCO[C@H]2CCC[C@@H]21 [Example 115, ((4aS,7aS)-Hexahydrocyclopenta[b][1,4]oxazin-4(4aH)-yl)(5-(2,4,5-trifluoro-3-hydroxyphenyl)-1,2,4-oxadiazol-3-yl)methanone] | 32.5 µM | > 50 µM | 0.1 µM | 6.2 μl/min/1E6 |
| O=C(c1noc(-c2cc(C(F)(F)F)[nH]c(=O)c2)n1)N1CCC(c2ccccc2)C1 (stereo not drawn) [Example 9, 4-(3-(3-Phenylpyrrolidine-1-carbonyl)-1,2,4-oxadiazol-5-yl)-6-(trifluoromethyl)pyridin-2(1H)-one] | 24.9 µM | > 50 µM | 5.55 µM | 262.2 μl/min/1E6 |
| CC(C)CC1CN(C(=O)c2noc(-c3cc(F)c(F)c(O)c3F)n2)CCO1 (stereo not drawn) [Example 47, (2-Isobutylmorpholino)(5-(2,4,5-trifluoro-3-hydroxyphenyl)-1,2,4-oxadiazol-3-yl)methanone] | 2.1 µM | 47.4 µM | 0.23 µM | 17.4 μl/min/1E6 |
| O=C(c1noc(-c2cc(F)c(F)c(O)c2F)n1)N1CC[C@@H](Oc2ccccc2)C1 [Example 98, (R)-(3-Phenoxypyrrolidin-1-yl)(5-(2,4,5-trifluoro-3-hydroxyphenyl)-1,2,4-oxadiazol-3-yl)methanone] | 40.2 µM | 9.5 µM | 0.52 µM | 26.7 μl/min/1E6 |
| C[C@@H]1C[C@H](C)CN(C(=O)c2nc(-c3cc(F)c(F)c(O)c3F)no2)C1 [Example 111, ((3R,5S)-3,5-Dimethylpiperidin-1-yl)(3-(2,4,5-trifluoro-3-hydroxyphenyl)-1,2,4-oxadiazol-5-yl)methanone] | > 50 µM | > 50 µM | 0.1 µM |  |

More lines, main results first:

| IC50 [1] | IC50 [2] | IC50 [3] | SMILES | Assay A: Human Heps Met Clint GMean CLint (μl/min/1E6) (human hepatocytes) |
| --- | --- | --- | --- | --- |
| > 50 µM | > 50 µM | 1.12 µM | C[C@@H]1CN(C(=O)c2noc(-c3cc(F)c(F)c(O)c3F)c2C#N)C[C@H](C)O1 [Example 22, 3-((2R,6S)-2,6-Dimethylmorpholine-4-carbonyl)-5-(2,4,5-trifluoro-3-hydroxyphenyl)isoxazole-4-carbonitrile] | 6.3 μl/min/1E6 |
| > 50 µM | 6.7 µM | 1.61 µM | O=C(c1noc(-c2cc(F)c(F)c(O)c2F)n1)N1CC(Oc2ccccc2)C1 [Example 2, (3-Phenoxyazetidin-1-yl)(5-(2,4,5-trifluoro-3-hydroxyphenyl)-1,2,4-oxadiazol-3-yl)methanone] | 14.7 μl/min/1E6 |
| > 50 µM | 21.1 µM | 3 µM | O=C(c1noc(-c2cc(F)c(F)c(O)c2F)n1)N1CC(c2ccc(F)cc2)C1 [Example 74, (3-(4-Fluorophenyl)azetidin-1-yl)(5-(2,4,5-trifluoro-3-hydroxyphenyl)-1,2,4-oxadiazol-3-yl)methanone] | 14.4 μl/min/1E6 |
| 6.2 µM | 17.8 µM | 0.79 µM | N#Cc1c(C(=O)N2Cc3ccc(F)cc3C2)noc1-c1cc(F)c(F)c(O)c1F [Example 18, 3-(5-Fluoroisoindoline-2-carbonyl)-5-(2,4,5-trifluoro-3-hydroxyphenyl)isoxazole-4-carbonitrile] | 17.2 μl/min/1E6 |
| > 50 µM | 39.9 µM | 0.09 µM | CC1CN(C(=O)c2noc(-c3cc(F)c(F)c(O)c3F)n2)CC(C)(C)O1 (stereo not drawn) [Example 117, (5-(2,4,5-Trifluoro-3-hydroxyphenyl)-1,2,4-oxadiazol-3-yl)(2,2,6-trimethylmorpholino)methanone] | 4.2 μl/min/1E6 |
| > 50 µM | > 50 µM | 0.49 µM | C[C@@H]1CN(C(=O)c2noc(-c3c(F)c(O)c(F)c(F)c3I)n2)C[C@H](C)O1 [Example 108, ((2S,6R)-2,6-Dimethylmorpholino)(5-(2,4,5-trifluoro-3-hydroxy-6-iodophenyl)-1,2,4-oxadiazol-3-yl)methanone] | 8.8 μl/min/1E6 |
| 8.3 µM | > 50 µM | 0.04 µM | CC(C)[C@H]1CN(C(=O)c2noc(-c3cc(F)c(F)c(O)c3F)n2)C[C@@H](C)O1 (racemic) [Example 122, rac-((2R,6S)-2-isopropyl-6-methylmorpholino)(5-(2,4,5-trifluoro-3-hydroxyphenyl)-1,2,4-oxadiazol-3-yl)methanone] | 8.8 μl/min/1E6 |
| > 50 µM | 32.3 µM | 0.14 µM | O=C(c1noc(-c2cc(F)c(F)c(O)c2F)n1)N1CCN(CCCOc2ccc(F)cc2)CC1 [Example 57, (4-(3-(4-Fluorophenoxy)propyl)piperazin-1-yl)(5-(2,4,5-trifluoro-3-hydroxyphenyl)-1,2,4-oxadiazol-3-yl)methanone] | 9.5 μl/min/1E6 |
| 41.7 µM | 36.4 µM | 0.19 µM | C[C@@H]1CN(C(=O)c2noc(-c3cc(F)c(F)c(O)c3F)n2)C[C@@H](C)O1 [Example 88, ((2R,6R)-2,6-Dimethylmorpholino)(5-(2,4,5-trifluoro-3-hydroxyphenyl)-1,2,4-oxadiazol-3-yl)methanone] | 3.6 μl/min/1E6 |
| > 50 µM | 15.4 µM | 4.56 µM | COc1cccc(N2CCN(C(=O)c3noc(-c4cc(F)c(F)c(O)c4F)c3C#N)CC2)c1 [Example 16, 3-(4-(3-Methoxyphenyl)piperazine-1-carbonyl)-5-(2,4,5-trifluoro-3-hydroxyphenyl)isoxazole-4-carbonitrile] | 56.8 μl/min/1E6 |
| > 50 µM | 31.5 µM | 0.03 µM | C[C@@H]1CN(C(=O)c2ccc(-c3cc(F)c(F)c(O)c3F)s2)C[C@H](C)O1 [Example 3, ((2R,6S)-2,6-Dimethylmorpholino)(5-(2,4,5-trifluoro-3-hydroxyphenyl)thiophen-2-yl)methanone] |  |
